According to ChEMBL document CHEMBL3297661, “1-Substituted-5-[(3,5-dinitrobenzyl)sulfanyl]-1H-tetrazoles and their isosteric analogs: A new class of selective antitubercular agents active against drug-susceptible and multidrug-resistant mycobacteria” (Eur J Med Chem, 2014):
Values after ≈ are worked out from the molar mass of the structure shown.

Assays:
Type in all cases: functional
[1] = system: Mycobacterium tuberculosis; test: Antimycobacterial activity against multidrug-resistant Mycobacterium tuberculosis 8666/2010 after 7 days by micromethod
[2] = system: Mycobacterium tuberculosis; test: Antimycobacterial activity against multidrug-resistant Mycobacterium tuberculosis Praha 131 after 7 days by micromethod
[3] = system: Mycobacterium tuberculosis; test: Antimycobacterial activity against multidrug-resistant Mycobacterium tuberculosis 9449/2007 after 7 days by micromethod
[4] = system: Mycobacterium tuberculosis; test: Antimycobacterial activity against multidrug-resistant Mycobacterium tuberculosis 234/2005 after 7 days by micromethod
[5] = system: Mycobacterium tuberculosis; test: Antimycobacterial activity against multidrug-resistant Mycobacterium tuberculosis Praha 1 after 7 days by micromethod
[6] = system: Mycobacterium tuberculosis; test: Antimycobacterial activity against multidrug-resistant Mycobacterium tuberculosis Praha 4 after 7 days by micromethod
[7] = system: Mycobacterium tuberculosis; test: Antimycobacterial activity against multidrug-resistant Mycobacterium tuberculosis 9449/2007 after 14 days by micromethod; details: 9449/2007, 336 h
[8] = system: Mycobacterium tuberculosis; test: Antimycobacterial activity against multidrug-resistant Mycobacterium tuberculosis Praha 131 after 14 days by micromethod; details: Praha 131, 336 h
[9] = system: Mycobacterium tuberculosis; test: Antimycobacterial activity against multidrug-resistant Mycobacterium tuberculosis 8666/2010 after 14 days by micromethod; details: 8666/2010, 336 h
[10] = system: Mycobacterium tuberculosis; test: Antimycobacterial activity against multidrug-resistant Mycobacterium tuberculosis Praha 1 after 14 days by micromethod; details: Praha 1, 336 h
[11] = system: Mycobacterium tuberculosis; test: Antimycobacterial activity against multidrug-resistant Mycobacterium tuberculosis Praha 4 after 14 days by micromethod; details: Praha 4, 336 h
[12] = system: Mycobacterium tuberculosis; test: Antimycobacterial activity against multidrug-resistant Mycobacterium tuberculosis 234/2005 after 14 days by micromethod; details: 234/2005, 336 h

Molecule | MIC ([1]; 8666/2010, 168 h) [µM] | MIC ([2]; Praha 131, 168 h) [µM] | MIC ([3]; 9449/2007, 168 h) [µM] | MIC ([4]; 234/2005, 168 h) [µM] | MIC ([5]; Praha 1, 168 h) [µM] | MIC ([6]; Praha 4, 168 h) [µM] | MIC [7] [µM] | MIC [8] [µM] | MIC [9] [µM] | MIC [10] [µM] | MIC [11] [µM] | MIC [12] [µM] | MIC [1] [µM] | MIC [2] [µM] | MIC [3] [µM] | MIC [4] [µM] | MIC [5] [µM] | MIC [6] [µM]
CC(C)/N=c1\cc2n(-c3ccc(Cl)cc3)c3ccccc3nc-2cc1Nc1ccc(Cl)cc1 [CLOFAZIMINE] | > 8 | 1 (≈ 0.473 µg/mL) | 8 (≈ 3.79 µg/mL) | 16 (≈ 7.57 µg/mL) | 0.25 (≈ 0.118 µg/mL) | 0.125 (≈ 0.0592 µg/mL) | – | – | – | – | – | – | – | – | – | – | – | –
NCC[C@H](O)C(=O)N[C@@H]1C[C@H](N)[C@@H](O[C@H]2O[C@H](CN)[C@@H](O)[C@H](O)[C@H]2O)[C@H](O)[C@H]1O[C@H]1O[C@H](CO)[C@@H](O)[C@H](N)[C@H]1O [AMIKACIN] | > 8 | > 32 | 32 (≈ 18.7 µg/mL) | 32 (≈ 18.7 µg/mL) | 2 (≈ 1.17 µg/mL) | 0.5 (≈ 0.293 µg/mL) | – | – | – | – | – | – | – | – | – | – | – | –
CCCCCCn1nnnc1[Se]Cc1cc([N+](=O)[O-])cc([N+](=O)[O-])c1 | 0.5 (≈ 0.207 µg/mL) | 1 (≈ 0.413 µg/mL) | 1 (≈ 0.413 µg/mL) | 1 (≈ 0.413 µg/mL) | 1 (≈ 0.413 µg/mL) | 1 (≈ 0.413 µg/mL) | 0.5 (≈ 0.207 µg/mL) | 0.5 (≈ 0.207 µg/mL) | 0.25 (≈ 0.103 µg/mL) | 0.5 (≈ 0.207 µg/mL) | 0.5 (≈ 0.207 µg/mL) | 0.5 (≈ 0.207 µg/mL) | – | – | – | – | – | –
O=[N+]([O-])c1cc(C[Se]c2nnnn2C2CCCCC2)cc([N+](=O)[O-])c1 | 0.5 (≈ 0.206 µg/mL) | 1 (≈ 0.411 µg/mL) | 1 (≈ 0.411 µg/mL) | 1 (≈ 0.411 µg/mL) | 1 (≈ 0.411 µg/mL) | 1 (≈ 0.411 µg/mL) | 0.5 (≈ 0.206 µg/mL) | 0.5 (≈ 0.206 µg/mL) | 0.5 (≈ 0.206 µg/mL) | 0.5 (≈ 0.206 µg/mL) | 0.5 (≈ 0.206 µg/mL) | 0.5 (≈ 0.206 µg/mL) | – | – | – | – | – | –
CN[C@@H]1[C@H](O[C@H]2[C@H](O[C@H]3[C@H](O)[C@@H](O)[C@H](N=C(N)N)[C@@H](O)[C@@H]3N=C(N)N)O[C@@H](C)[C@]2(O)C=O)O[C@@H](CO)[C@H](O)[C@H]1O [STREPTOMYCIN] | 16 (≈ 9.31 µg/mL) | 0.5 (≈ 0.291 µg/mL) | 64 (≈ 37.2 µg/mL) | 32 (≈ 18.6 µg/mL) | 0.5 (≈ 0.291 µg/mL) | 1 (≈ 0.582 µg/mL) | – | – | – | – | – | – | – | – | – | – | – | –
CO[C@H]1/C=C/O[C@@]2(C)Oc3c(C)c(O)c4c(O)c(c(/C=N/N5CCN(C)CC5)c(O)c4c3C2=O)NC(=O)/C(C)=C\C=C\[C@H](C)[C@H](O)[C@@H](C)[C@@H](O)[C@@H](C)[C@H](OC(C)=O)[C@@H]1C [RIFAMPIN] | > 8 | 2 (≈ 1.65 µg/mL) | 16 (≈ 13.2 µg/mL) | 16 (≈ 13.2 µg/mL) | 1 (≈ 0.823 µg/mL) | > 8 | – | – | – | – | – | – | – | – | – | – | – | –
COc1ccc(-n2nnnc2[Se]Cc2cc([N+](=O)[O-])cc([N+](=O)[O-])c2)cc1 | 0.5 (≈ 0.218 µg/mL) | 1 (≈ 0.435 µg/mL) | 1 (≈ 0.435 µg/mL) | 1 (≈ 0.435 µg/mL) | 1 (≈ 0.435 µg/mL) | 1 (≈ 0.435 µg/mL) | 1 (≈ 0.435 µg/mL) | 1 (≈ 0.435 µg/mL) | 0.5 (≈ 0.218 µg/mL) | 0.5 (≈ 0.218 µg/mL) | 0.5 (≈ 0.218 µg/mL) | 1 (≈ 0.435 µg/mL) | – | – | – | – | – | –
NNC(=O)c1ccncc1 [ISONIAZID] | 32 (≈ 4.39 µg/mL) | 0.25 (≈ 0.0343 µg/mL) | 16 (≈ 2.19 µg/mL) | > 32 | 8 (≈ 1.1 µg/mL) | 1 (≈ 0.137 µg/mL) | – | – | – | – | – | – | – | – | – | – | – | –
GENTAMICIN | – | – | – | – | – | – | – | – | – | – | – | – | > 8 | 0.5 | 16 | > 32 | 16 | 2
CC[C@@H](CO)NCCN[C@@H](CC)CO [ETHAMBUTOL] | > 8 | 0.5 (≈ 0.102 µg/mL) | 16 (≈ 3.27 µg/mL) | > 32 | 2 (≈ 0.409 µg/mL) | 0.5 (≈ 0.102 µg/mL) | – | – | – | – | – | – | – | – | – | – | – | –
O=[N+]([O-])c1cc(CSc2nnnn2C2CCCCC2)cc([N+](=O)[O-])c1 | 0.5 (≈ 0.182 µg/mL) | 1 (≈ 0.364 µg/mL) | 1 (≈ 0.364 µg/mL) | 1 (≈ 0.364 µg/mL) | 1 (≈ 0.364 µg/mL) | 1 (≈ 0.364 µg/mL) | 1 (≈ 0.364 µg/mL) | 1 (≈ 0.364 µg/mL) | 0.5 (≈ 0.182 µg/mL) | 1 (≈ 0.364 µg/mL) | 0.5 (≈ 0.182 µg/mL) | 0.5 (≈ 0.182 µg/mL) | – | – | – | – | – | –
CC1COc2c(N3CCN(C)CC3)c(F)cc3c(=O)c(C(=O)O)cn1c23 (stereo unspecified) [OFLOXACIN] | > 8 | 0.5 (≈ 0.181 µg/mL) | 16 (≈ 5.78 µg/mL) | > 32 | > 16 | 0.125 (≈ 0.0452 µg/mL) | – | – | – | – | – | – | – | – | – | – | – | –
